In one assay the test system is Hela. The assay can be described thus: Clone formation experiment, Hela. In kind it is cell-based. The conditions noted are these: LARP7 overexpression in Hela vs control.
Assay [1] relates to cervical cancer cells Hela. The assay can be described thus: CCK8 cell viability experiment, Hela. In kind it is cell-based.
The test system of assay [2] is MDA-MB-231 xenograft tumor. As to the kind of experiment: Radiotherapy and chemotherapy of xenograft tumor mice, MDA-MB-231. It is filed as in vivo. The conditions noted are these: CDDP and radiation.
The subject of a further assay is MDA-MB-231. The assay can be described thus: Clone formation experiment, MDA-MB-231. It is filed as cell-based. The conditions noted are these: LARP7 overexpression in MDA-MB-231 vs control.
The subject of assay [3] is triple-negative breast cancer cells MDA-MB-231. As to the kind of experiment: CCK8 cell viability experiment, MDA-MB-231. In kind it is cell-based.
Assay [4] concerns triple-negative breast cancer cells HCC1937. The assay can be described thus: CCK8 cell viability experiment, HCC1937. In kind it is cell-based. The note with it: read-out: IC50 (the concentration of drug required for 50% inhibition).
Another assay concerns HCC1937 xenograft tumor. As to the kind of experiment: Radiotherapy and chemotherapy of xenograft tumor mice, HCC1937. The note with it: CDDP and radiation. In kind it is in vivo.

Structures are written as SMILES. Like-named read-outs stand apart in the source and are kept apart here.

Consider `[NH2][Pt]([NH2])([Cl])[Cl]` [CDDP, cisplatin], for which the “sensitivity of the cells by clone formation” value is listed as “significantly increases cell sensitivity” in the assay on Hela and “significantly increases the sensitivity” in the assay with MDA-MB-231. Moreover, the IC50 was determined as 55.8 ± 5.4 µM in assay [1] (LARP7-knockdown (siLARP7, sgLARP7)); 19.1 ± 6.9 µM in assay [1] (LARP7 overexpression); 31.4 ± 6 µM in assay [1] (control group of LARP7-knockdown); 39.6 ± 2.5 µM in assay [1] (control group of LARP7 overexpression); 76.3 ± 26.7 µM in assay [3] (LARP7-overexpressing MDA-MB-231 cells); 232 ± 83.9 µM in assay [3] (MDA-MB-231 control group (of LARP7 overexpression)). Further, the IC50 in assay [4] (HCC1937 control group (of LARP7 knock-down)) worked out at 102 ± 9.1 µM; in assay [4] (LARP7-knock-down HCC1937 cells), 185 ± 20.5 µM. Also, the “sensitivity of in vivo tumor tissue” value in assay [2] (MDA-MB-231 cells (low LARP7 expression)) is given as “tolerant”; in assay [2] (MDA-MB-231 cells with artificial LARP7 overexpression), “significantly improved the sensitivity”; in the assay on HCC1937 xenograft tumor (HCC1937 cells (high LARP7 expression)) it was “sensitive”; in the assay with HCC1937 xenograft tumor (LARP7-knock-out HCC1937 cells (sgLARP7)), “less sensitive”.
For the compound `CO[C@@]12[C@H](COC(N)=O)C3=C(C(=O)C(C)=C(N)C3=O)N1C[C@@H]1N[C@@H]12` [MMS, mitomycin], the IC50 worked out at 123 ± 22 µM in assay [1] (Homo sapiens, HeLa, LARP7 overexpression); 210 ± 21.6 µM in assay [1] (Homo sapiens, HeLa, control group of LARP7 overexpression); 262 ± 20.3 µM in assay [3] (Homo sapiens, MDA-MB-231, LARP7-overexpressing MDA-MB-231 cells); 451 ± 29.4 µM in assay [3] (Homo sapiens, MDA-MB-231, MDA-MB-231 control group (of LARP7 overexpression)); 247 ± 38.1 µM in assay [4] (Homo sapiens, HCC1937, HCC1937 control group (of LARP7 knock-down)); 682 ± 123 µM in assay [4] (Homo sapiens, HCC1937, LARP7-knock-down HCC1937 cells).

The values above are taken from patent US20210087640A1, “APPLICATION OF LARP7 GENE IN CANCER DIAGNOSIS AND TREATMENT” (SHANGHAI JIAO TONG UNIVERSITY, priority 2018, published 2021).
